Data on three compounds can be found in article PMC10859961, “Ir(III) Half-Sandwich Photosensitizers with a π-Expansive Ligand for Efficient Anticancer Photodynamic Therapy” (Journal of Medicinal Chemistry, 2024).

Data set [1] can be described thus: Stability in DMEM (UV-vis). It is filed as physicochemical. Particulars: DMEM without phenol red; dark; 48 h. The method, then:
The stability of the complexes in biological media was studied by UV–vis spectroscopy. Complexes 1 and 2 were dissolved in DMSO and complexes 3–8 were dissolved in MeOH at 1.0 × 10^–3 M and then diluted to 1.0 × 10^–5 M with Dulbecco’s modified Eagle’s medium (DMEM) without phenol red (Corning) (the final concentration of DMSO or MeOH was 1%). The solutions were studied in the dark and under blue light irradiation (470 nm).

Data set [2] is described as follows: Stability and photostability studies by 1H NMR. Format: physicochemical. As to the method:
Solutions of complexes 1 and 6 at 3.2 mM and 2 at 0.6 mM in DMSO-d6 and DMSO-d6/D2O mixture (9:1, v/v) were prepared.

Data set [3] in a line: Reactivity of 1w with n-Bu4NCl (1H NMR). Format: physicochemical. The following applies: 100 equivalents of n‐Bu4NCl. As to the method:
A solution of 1w (3.0 mM) with 100 equiv of n-Bu4NCl (300 mM) in a DMSO-d6/D2O (9:1, v/v) mixture was monitored by NMR spectroscopy at room temperature and at 60 °C.

Data set [4] can be described thus: pKa determination (absorbance vs pH). Format: physicochemical. Particulars: DMSO/H2O (2/98, v/v), Bu4NBF4 5 mM; piperidine ring. The method, then: Solutions of complexes 5 and 6 (2.00 × 10^–5 M) and Imepip ligand (2.00 × 10^–3 M) in H2O/DMSO (98/2, v/v) mixture with n-Bu4NBF4 (5 mM) were prepared. The presence of the salt ensured the conductivity of the media. Evolution of the peaks was studied at different pH by recording the absorbance spectrum. Aliquots of 10 μL of HCl (0.002–0.020 M) or NaOH (0.002–0.020 M) were added to a solution of 2.4 mL of complex to vary the pH. The absorbance versus pH plot enables us to determine one constant according to the equation from the Wilson and Lester method (eq 2):[146] [drawing 23] 2 where Aa is the absorbance for the acid species, Ab is the absorbance for the basic species, and Am is the absorbance of the mixture. The intersection obtained by representing log(Am – Aa)/(Ab – Am) versus pH provides the pKa.

Data set [5] deals with A549 cells. The experiment in a line: Cell death mechanism (Annexin V-FITC / propidium iodide). Format: cell-based, human. The following applies: photoactivated. The method, then: The cell death mechanism was analyzed with the Vybrant Apoptosis Assay Kit (Molecular Probes). A549 cells seeded in 12-well plates at a density of 1 × 10^5 cells per well were treated with complex 6 at the corresponding IC50,light × 5 under photoactivation conditions. Cisplatin at 50 μM was used as positive control. 4 and 20 h after the irradiation, cells were collected by trypsinization and immediately stained with Annexin V-FITC and propidium iodide according to the manufacturer’s instructions. The median fluorescence of 10,000 cells of each sample was analyzed by flow cytometry. Annexin-FITC staining was detected at a wavelength of 520 nm (FL1) and propidium iodide was detected at 617 nm (FL2).

Data set [6] deals with A549 cells. The experiment in a line: Subcellular distribution (cell fractionation, ICP-MS). Particulars: 10 μM, 4 h, 37 °C. It is filed as cell-based, human. As to the method: The intracellular distribution of complex 6 was explored by measuring the iridium content in different cellular compartments: nucleus, membrane/particulate (which includes cellular organelles and organelle’s membrane proteins), cytosol, and cytoskeleton. To this end, 8 × 10^6 A549 cells were incubated with 6 at 10 μM for 4 h in the dark at 37 °C. Then, the cells were washed twice with PBS, detached with trypsin, and centrifuged to obtain the whole cell pellet. The viability of the cells was assessed through Trypan blue staining, which confirmed that over 95% of the cells were viable. The different cell fractions were then isolated using the FractionPREP Cell Fractionation kit (BioVision) and the total iridium content in each fraction was measured by ICP-MS in two independent experiments, as described above.

In data set [7] the test system is A549 cells. The data set is described as follows: Cell internalization (iridium content by ICP-MS). Format: cell-based, human. The following applies: for iridium content in cells: 10 μM, 1 h. As to the method:
To assess the cell internalization mechanism, 8 × 10^6 A549 cells were incubated with complex 6 at 10 μM for 1 h in the dark under different conditions: (i) at 37 °C (positive control cells), (ii) at 37 °C in the presence of CCCP (50 μM) (to inhibit mitochondrial ATP production) or (iii) at 4 °C (to inhibit cellular metabolism). The cells incubated with medium alone were included as negative control. Then, the cells were washed twice with PBS, detached with trypsin, and centrifuged to obtain the whole cell pellet. […] The iridium amount in the samples was then determined by inductively coupled plasma mass spectrometry (ICP-MS) analysis. To this end, the cell pellets were dissolved in 400 μL of 69% v/v nitric acid (PanReac Applichem) and heated in a water bath at 100 °C for 18 h. Samples were then allowed to cool and diluted with Milli-Q water to a final volume of 10 mL. […] Iridium content was measured on an ICP-MS Agilent 7500c instrument at the Serveis Tècnics de Recerca, Universitat de Girona. The solvent used for all ICP-MS experiments was Milli-Q water with 2% superpure grade HNO3. The iridium standard (high purity standards, 1000 μg/mL ± 2 μg/mL in 5% hydrochloric acid in low TOC water (<50 ppb)) was diluted with 2% HNO3 to 400 ppb. Iridium standards were freshly prepared in Milli-Q water with 2% HNO3 before each experiment. The concentrations used for the calibration curve were 0, 1, 2, 5, 10, and 20 ppb. The isotope detected was 193Ir and readings were done in triplicate. Rhodium was added as an internal standard at a concentration of 10 ppb to all samples. All of the experiments were performed by duplicate.

Each structure is given as a SMILES string. Where “and” joins values, the source holds several entries; their conditions need not be identical. Equal values may be shown once.

In the case of `Cc1c(C)c(C)[c-](C)c1C.[Cl][Ir]1[c]2cccc3c4nc5ccccc5nc4c4ccc[n+]1c4c23` [complex 1, [(η^5-C5Me5)IrCl(pbpz)]], the “stability in DMEM (UV–vis changes)” value in data set [1] was “minor change”. Further, the “Percentage of species (chlorido complex remaining / aqua adduct formed), 1H NMR” value in data set [2] (DMSO‐d6, dark, 0 h) was determined as 100%; in data set [2] (DMSO‐d6, dark, 0.5 h) it was 78%; in data set [2] (DMSO‐d6, dark, 1 h), 76%; in data set [2] (DMSO‐d6, dark, 1.5 h) it was 75%; in data set [2] (DMSO‐d6, dark, 2.5 h) it was 72%; in data set [2] (DMSO‐d6, dark, 4.5 h) it was 71%. The “Percentage of species (chlorido complex remaining / aqua adduct formed), 1H NMR” value worked out at 70% in data set [2] (DMSO‐d6, dark, 6 h); 69% in data set [2] (DMSO‐d6, dark, 8 h); 68% in data set [2] (DMSO‐d6, dark, 10 h); 57% in data set [2] (DMSO‐d6, dark, 32 h); 49% in data set [2] (DMSO‐d6, dark, 50 h); 40% in data set [2] (DMSO‐d6, dark, 70 h). In addition, the “Percentage of species (chlorido complex remaining / aqua adduct formed), 1H NMR” value in data set [2] (DMSO‐d6, dark, 97 h) was determined as 35%; in data set [2] (DMSO‐d6/D2O (9/1), dark, 0 h) it was 100%; in data set [2] (DMSO‐d6/D2O (9/1), dark, 0.5 h), 4%; in data set [2] (DMSO‐d6/D2O (9/1), dark, 1 h), 0.5%; in data set [2] (DMSO‐d6/D2O (9/1), dark, 1.5 h) it was 0%; in data set [2] (DMSO‐d6/D2O (9/1), dark, 2.5 h), 0%. Moreover, the “Percentage of species (chlorido complex remaining / aqua adduct formed), 1H NMR” value in data set [2] (DMSO‐d6/D2O (9/1), dark, 4.5 h) worked out at 0%; in data set [2] (DMSO‐d6/D2O (9/1), dark, 6 h) it was 0%; in data set [2] (DMSO‐d6/D2O (9/1), dark, 8 h) it was 0%; in data set [2] (DMSO‐d6/D2O (9/1), dark, 10 h), 0%; in data set [2] (DMSO‐d6/D2O (9/1), dark, 32 h), 0%; in data set [2] (DMSO‐d6/D2O (9/1), dark, 50 h), 0%. For the same compound, the “Percentage of species (chlorido complex remaining / aqua adduct formed), 1H NMR” value in data set [2] (DMSO‐d6/D2O (9/1), dark, 70 h) was 0%; in data set [2] (DMSO‐d6/D2O (9/1), dark, 97 h), 0%. In addition, the “chloride complex 1 formed back from 1w” value in data set [3] (60 °C, 15 minutes) is recorded as “approximately 15%”; in data set [3] (room temperature, 4 days), 2%.
Turning to `Cc1c(C)c(C)[c-](C)c1C.F[B-](F)(F)F.c1ccc2cc3nc4c5ccc[n+]6c5c5[c](cccc5c4nc3cc2c1)[Ir]6[n+]1ccn(CCN2CCCCC2)c1` [complex 6, [(η^5-C5Me5) Ir(Imepip)(pbpn)]BF4], in data set [4], the pKa is 7.8 and 7.85. In addition, the “release of the N-donor ligand (1H NMR)” value in data set [2] (DMSO-d6/D2O (9/1), dark or blue, green or red light irradiation) is “not observed”. Besides, in the data set on A549 cells [5] (IC50,light × 5, 4 h), the “cells in early apoptosis (AN+; IP−), lower right quadrant” value stood at 1.7%; the “cells in late apoptosis (AN+; IP+), upper right quadrant” value worked out at 15.8%; the “cells in necrosis (AN–; IP+), upper left quadrant” value was 6.4%. For the same compound, in the data set on A549 cells [5] (IC50,light × 5, 20 h), the “cells in late apoptosis (AN+; IP+), upper right quadrant” value is on record as 43.2% and the “cells in necrosis (AN–; IP+), upper left quadrant” value is recorded as 10.4%. For the same compound, in the data set on A549 cells [6], the “iridium in cytoskeletal fraction” value is given as 11.0 ± 4 ng Ir/10^6 cells, the “iridium in cytosolic fraction” value turned out to be 4.6 ± 2 ng Ir/10^6 cells, the “iridium in membrane/organelles fraction” value is on record as 140.8 ± 20 ng Ir/10^6 cells and the “iridium in nuclear fraction” value was 7.1 ± 4 ng Ir/10^6 cells. The “iridium content in cells” value in the data set on A549 cells [7] (4 °C) turned out to be 18.0 ± 3 ng/10^6 cells. Besides, the “iridium content in cells” value in the data set with A549 cells [7] (37 °C, no inhibition) is 87.6 ± 4 ng/10^6 cells. Moreover, the “iridium content in cells” value in the data set on A549 cells [7] (CCCP pretreatment) was 17.6 ± 2 ng/10^6 cells. Moreover, the “reduction of iridium content vs 37 °C” value in the data set on A549 cells [7] (at 4 °C or with CCCP pretreatment) is reported as “approximately 80%”.
As to `Cc1c(C)c(C)[c-](C)c1C.F[B-](F)(F)F.c1ccc2nc3c4ccc[n+]5c4c4[c](cccc4c3nc2c1)[Ir]5[n+]1ccn(CCN2CCCCC2)c1` [complex 5, [(η^5-C5Me5)Ir(Imepip)(pbpz)]BF4], the pKa in data set [4] is 7.2 and 7.19.
